Legend:
[1] = tested on: MCF-7 cells; assay: cells; format: cell-based, human
Protocol: For a typical siRNA transfection, […] of the annealed siRNA duplex was mixed with 1.4 ml of Opti-MEM reagent (Invitrogen). In another tube, […] of Oligofectamine reagent (Invitrogen, Carlsbad, Calif.) was mixed with […] of Opti-MEM. The two solutions were combined and mixed gently by inversion and incubated for 20 min. at RT. The resulting solution was added to the cultured cells drop by drop in a 10 cm dish (cells are approximately 40-50% confluent). The next day the transfected cells were trypsinized and seeded in 6 or 96-well plates and further incubated for the indicated amount of time (assay dependent) before further analysis.
Cell survival was determined using the MTT cytotoxicity assay (see, e.g., Tokuyama et al. (2005) Anticancer Res. 25(1A): 17-22). Small interfering RNA transfected cells were seeded in triplicate into 96-well plates at 5×10^3 cells/well 48 hrs post-transfection. The cells were incubated for an additional 16 to 24 hrs before they were exposed to increasing concentrations of cytotoxic drugs. Doxorubicin (adriamycin), cisplatin, taxol, vinblastine, vincristine, and mitoxantrone were all purchased from Sigma Corp. (St. Louis, Mo.). Stocks were made as follows: 6 mM for doxorubicin, 1.1 mM for vincristine and vinblastine; 1.1 mM for taxol, 50 mM for cisplatin both in DMSO; and 0.97 mM mitoxantrone in ethanol. Appropriate dilutions were made in the respective media for each cell line. Following addition of drugs, incubation was continued for an additional 72 hrs. […] of MTT dye (5 mg/ml) were added into each well and the plate was further incubated at 37° C. for 4 hrs. The dye was solubilized with 10% Triton X-100, 0.01 N HCl and further incubated at 37° C. in the dark for 30 min. Cell viability was determined by measure of absorption at 570 nm in a Wallac multiwell plate reader (PerkinElmer, Inc., Boston, Mass.). The averages of triplicate wells were plotted using the Prism software (GraphPad Software, Inc., San Diego, Calif.).

[2] = tested on: MCF-7 cells; assay: Phase contrast viability assay (cell morphology); format: cell-based, human; settings: calumenin-depleted MCF-7 cells; FIG. 3
[3] = tested on: MCF-7/ADR xenografts; assay: Mammary adenocarcinoma MCF-7/ADR xenografts in nude mice; format: in vivo; settings: adenocarcinomas, vs mice treated with control siRNA
Protocol: In further studies, the efficacy of a calumenin-targeted therapeutic in treating an MDR mammary adenocarcinoma cells (MCF/AR) is assessed. Briefly, male […] nude mice 5 to 7 weeks old, weighing 18 g to 22 g, are used for the MCF-7/ADR xenografts. Mice receive a subcutaneous (s.c.) injection of the cells using 5×10^5 cells/inoculation under the shoulder. When the s.c. tumor is approximately 5.5 mm in size, mice are randomized into treatment groups of 4 including controls and groups receiving taxol or doxorubicin, alone (4 mg/kg), intraperitoneally (i.p.) every 2 days, calumenin siRNA alone (3 μg daily for 16 days), or both taxol and calumenin siRNA (3 μg daily for 16 days for each treatment). […] The animal's weight is measured every 4 days. Tumor growth starting on the first day of treatment is measured and the volume of the xenograft is monitored every 4 days. […] Tumor tissue is excised from the mice and its weight is measured. […]
In further studies, the efficacy of a calumenin-targeted therapeutic in treating a mammary adenocarcinoma cells (MCF-7) is assessed. […] The animal's weight is measured every 4 days. Tumor growth starting on the first day of treatment is measured and the volume of the xenograft is monitored every 4 days. […] Tumor tissue is excised from the mice and its weight is measured. […]

Calumenin siRNA: siRNA duplex targeting human calumenin mRNA; sense 5′-GAAGGACCGUGUACAUCAU-3′ (SEQ ID NO: 1), anti-sense 5′-AUGAUGUACACGGUCCUUC-3′ (SEQ ID NO: 2), 3′TT overhangs (3' TT overhangs on both strands, further chemistry not given here)
decrease in cell viability of MCF-7 cells [1]: 48%
cell morphology [2]: more rounded cell morphology
total cell number in tumors [3]: lower
tumors by weight ([3]; 3 μg siRNA daily for 16 days): smaller

Reference: patent publication US20070243548A1, “Calumenin-directed diagnostics and therapeutics for cancer and chemotherapeutic drug resistance” (priority 2006, published 2007)
